# In PMC10287695, “Non-covalent inhibitors of thioredoxin glutathione reductase with schistosomicidal activity in vivo” (Nature Communications, 2023):
# Values joined by “and” are separate entries in the source; they are usually repeats but may differ in a detail not shown here. Equal values may be shown once. Marks after values point to notes of the source that are not given here.
# What was measured:
# TGR [1] = target: T1, TGR (Schistosoma mansoni, UniProt Q962Y6); assay: Time dependence of inhibition; format: biochemical; design: avg % inhib, 0.5 hr / avg % inhib, 1 hr / avg % inhib, 2 hr / avg % inhib, 3 hr / avg % inhib, 6 hr / avg % inhib, 24 hr: tested at 50 µM
# T1 construct: made in house
# T1 sequence (Q962Y6 1-598): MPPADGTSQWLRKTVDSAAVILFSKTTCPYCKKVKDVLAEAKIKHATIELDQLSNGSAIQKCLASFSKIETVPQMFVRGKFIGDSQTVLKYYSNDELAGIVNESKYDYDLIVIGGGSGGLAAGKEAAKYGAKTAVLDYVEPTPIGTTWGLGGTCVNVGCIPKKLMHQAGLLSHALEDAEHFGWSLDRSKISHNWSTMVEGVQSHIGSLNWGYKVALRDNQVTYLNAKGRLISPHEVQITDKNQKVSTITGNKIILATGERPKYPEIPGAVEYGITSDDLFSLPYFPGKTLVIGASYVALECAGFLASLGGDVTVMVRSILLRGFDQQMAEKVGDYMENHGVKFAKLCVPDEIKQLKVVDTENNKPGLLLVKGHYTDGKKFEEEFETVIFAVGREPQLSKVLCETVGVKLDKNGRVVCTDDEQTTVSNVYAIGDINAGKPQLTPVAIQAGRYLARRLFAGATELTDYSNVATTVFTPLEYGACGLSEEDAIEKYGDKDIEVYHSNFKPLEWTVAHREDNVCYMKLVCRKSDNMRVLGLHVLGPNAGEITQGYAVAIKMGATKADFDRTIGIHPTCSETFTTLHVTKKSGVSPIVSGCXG
# Protocol: TGR was incubated at room temperature (up to 6 h) and at 4 °C for 6 to 24 h with 50 µM inhibitor and 100 µM NADPH for the indicated times. Then DTNB (3 mM) and NADPH (100 µM) were added, and the reaction was monitored at A412 for 5 min. The assay was done in triplicate.
# TGR [2] = target: T1, TGR; assay: Reversibility by jump dilution; format: biochemical; settings: for % Activity (ID list), D60 / % Inhibition (ID list), D60: D60: diluted 1:100, activity determined after 60 min; for Inhibitor (rate), 0 min / % Activity, 0 min: [0, D0]: 15 min preincubation inhibitor + TGR + NADPH, diluted 1:100, then activity determined immediately; for Inhibitor (rate), 0 min / Inhibitor (rate), 60 min / Inhibitor (rate), -15: raw rate; for % Activity, 0 min / % Activity, 60 min / % Activity, -15: relative to DMSO; for Inhibitor (rate), 60 min / % Activity, 60 min: [60, D60]: 15 min preincubation inhibitor + TGR + NADPH, diluted 1:100, then activity determined after 60 min; for Inhibitor (rate), -15 / % Activity, -15: [-15]: 15 min preincubation inhibitor + TGR + NADPH, then activity determined, replicates; for % Activity (ID list) / % Inhibition (ID list): before dilution (-15)
# Protocol: A reaction of 370 nM TGR, 100 µM NADPH, and 250 µM inhibitor was incubated for 15 min at room temperature. A 100x dilution of the reaction was made and the activity was determined immediately and after 60 min.
# [3] = test system: TGR in newly transformed schistosomula (NTS); assay: TGR inhibition in NTS with TRFS-Green fluorescent probe; format: cell-based, S. mansoni; settings: 2 h with inhibitor (30 µM; AF 3 µM) then TRFS-Green 10 µM
# Outline: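 Newly transformed schistosomula were cultured overnight at 37 °C with 5% CO2 in M199 containing 5.5 mM D-glucose, penicillin-streptomycin and 5% heat inactivated fetal bovine serum. After treatment they received TRFS-Green (10 µM) for 4 h and were rinsed. Fluorescence was imaged (Keyence BZ-X800) and quantified on a Cytation3 at excitation 438 nm, emission 538 nm.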
# S. japonicum adult worms = assay: Schistosomicidal activity ex vivo, S. japonicum adult worms; format: cell-based; settings: 48 h exposure
# Protocol: (§1) Three-week old, female Swiss-Webster mice obtained from the Charles River were housed in the Comparative Research Center of Rush University Medical Center. Mice were infected by percutaneous tail exposure to about 200 S. mansoni or 50 S. japonicum cercaria for adult worms and about 1000 cercaria for juvenile S. mansoni worms through natural transdermal penetration of the cercariae for 1 h[81].
# (§2) DMSO formulated compounds were diluted with phenol red free M199 medium or RPMI medium for NTS or juvenile and adult worms, respectively, at <1% DMSO final concentrations. NTS, juvenile and adult worms from overnight cultures were tested against compounds in triplicate. Controls were treated with DMSO alone or 5 µM AF as a positive control in appropriate medium. […] Schistosome viabilities in the presence of the compounds were assessed using this formula: % Viability = Averages of Test / Averages of DMSO Control x 100.
# [4] = test system: S. mansoni juvenile worms (21 days); assay: Schistosomicidal activity ex vivo, juvenile worms (21 days); format: cell-based; settings: for viability at 5 µM / viability at 15 µM / viability at 30 µM: Schistosoma mansoni, 23 day S. mansoni worms, 48 HR; for viability at 5 µM: Conc. 5 µM; for viability at 15 µM: Conc. 15 µM; for viability at 30 µM: Conc. 30 µM; for LD50 ex vivo S. mansoni 21 days: juvenile worms, 48 h exposure
# Protocol: as §1, §2
# [5] = Cytotoxicity in mammalian cells (Cell Titer Glo); format: cell-based; settings: African green monkey, Vero cells
# Protocol: Following overnight incubation, formulated DMSO-compound stock solutions were diluted with DMEM at <1% DMSO final concentrations. […] Vero cells treated similarly with different concentrations of PZQ, MZM and AF (Cayman Chemicals) were used as positive controls.
# [6] = D0: diluted 1:100, activity determined immediately, list for plotting
smiles,measurement,setting,value
Cc1oc(C2CCCCC2)nc1CN[C@@H]1C[C@@H]2C[C@H]([C@H]1C)C2(C)C [Compound 4],"rate, 0.5 hr","TGR [1]; panel d Time Dependence, 0.5 hr",0.06468 and 0.06599 and 0.06659
same,"avg % inhib, 0.5 hr","TGR [1]; panel d Time Dependence, 0.5 hr, average",18.4758%
same,"% inhib, 0.5 hr","TGR [1]; panel d Time Dependence, 0.5 hr, replicates",18.6722% and 19.1992% and 17.556%
same,"rate, 1 hr","TGR [1]; panel d Time Dependence, 1 hr",0.05061 and 0.05195 and 0.05284
same,"avg % inhib, 1 hr","TGR [1]; panel d Time Dependence, 1 hr, average",30.1534%
same,"% inhib, 1 hr","TGR [1]; panel d Time Dependence, 1 hr, replicates",31.2738% and 29.387% and 29.7994%
same,"rate, 2 hr","TGR [1]; panel d Time Dependence, 2 hr",0.03578 and 0.03672 and 0.03844
same,"avg % inhib, 2 hr","TGR [1]; panel d Time Dependence, 2 hr, average",45.3087%
same,"% inhib, 2 hr","TGR [1]; panel d Time Dependence, 2 hr, replicates",46.082% and 46.1584% and 43.6859%
same,"rate, 3 hr","TGR [1]; panel d Time Dependence, 3 hr",0.02569 and 0.02601 and 0.02662
same,"avg % inhib, 3 hr","TGR [1]; panel d Time Dependence, 3 hr, average",55.4006%
same,"% inhib, 3 hr","TGR [1]; panel d Time Dependence, 3 hr, replicates",55.9121% and 55.5156% and 54.774%
same,"rate, 6 hr","TGR [1]; panel d Time Dependence, 6 hr",0.01404 and 0.01371
same,"avg % inhib, 6 hr","TGR [1]; panel d Time Dependence, 6 hr, average",70.958%
same,"% inhib, 6 hr","TGR [1]; panel d Time Dependence, 6 hr, replicates",70.2542% and 71.6618%
same,"rate, 24 hr","TGR [1]; panel d Time Dependence, 24 hr",0.004212 and 0.004652 and 0.005413
same,"avg % inhib, 24 hr","TGR [1]; panel d Time Dependence, 24 hr, average",87.319%
same,"% inhib, 24 hr","TGR [1]; panel d Time Dependence, 24 hr, replicates",88.741% and 87.5248% and 85.6913%
same,"% Activity (ID list), D0",TGR [2]; [6],102.5% and 102.9% and 117.3%
same,"% Activity (ID list), D60",TGR [2]; list for plotting,106.3%
same,"% Inhibition (ID list), D60",TGR [2]; list for plotting,-15.2% and -8.7% and -6.3%
same,"Inhibitor (rate), 0 min",TGR [2],0.04729 and 0.04838 and 0.05087
same,"% Activity, 0 min",TGR [2],102.47% and 102.936% and 117.347%
same,"Inhibitor (rate), 60 min",TGR [2],0.04596 and 0.04643 and 0.04838
same,"% Activity, 60 min",TGR [2],106.315% and 104.173% and 103.664%
same,"Inhibitor (rate), -15",TGR [2],0.01214 and 0.0123 and 0.01219
same,"% Activity, -15",TGR [2],35.2293% and 34.0532% and 34.3671%
same,% Activity (ID list),TGR [2]; list for plotting,35.2% and 34.1% and 34.4%
same,% Inhibition (ID list),TGR [2]; list for plotting,64.8% and 65.9% and 65.6%
same,TRFS-Green fluorescence in NTS,[3],significant decreases in fluorescence
same,LD50 ex vivo S. japonicum adult,S. japonicum adult worms,27.1 ± 1.75 µM
same,viability at 5 µM,[4],65.7%
same,viability at 15 µM,[4],45.3%
same,viability at 30 µM,[4],27.7%
same,LD50 ex vivo S. mansoni 21 days,[4],14.2 ± 2.13 µM
C#CCN(Cc1nc(-c2ccccc2)oc1C)[C@@H]1C[C@@H]2C[C@H]([C@H]1C)C2(C)C [Compound 6],"viability at 24 h, 1 µM",[5]; Conc. 1 µM,99.1%
same,"viability at 24 h, 5 µM",[5]; Conc. 5 µM,99%
same,"viability at 24 h, 10 µM",[5]; Conc. 10 µM,91.1%
same,"viability at 24 h, 25 µM",[5]; Conc. 25 µM,86.8%
same,"viability at 24 h, 50 µM",[5]; Conc. 50 µM,79.9%
same,"viability at 24 h, 100 µM",[5]; Conc. 100 µM,63.9%
same,"TGR activity relative to dmso, time 0","TGR [1]; panel c, time 0 (time unit not given), replicates",3.265 and 0.9012
same,"TGR activity relative to dmso, time 5","TGR [1]; panel c, time 5 (time unit not given), replicates",0.7526 and -0.07048 and -0.5247
same,"TGR activity relative to dmso, time 10","TGR [1]; panel c, time 10 (time unit not given), replicates",0.5708 and -0.4368 and -0.3757
same,"TGR activity relative to dmso, time 15","TGR [1]; panel c, time 15 (time unit not given), replicates",0.7215 and 0.1963 and -0.1983
same,"TGR activity relative to dmso, time 30","TGR [1]; panel c, time 30 (time unit not given), replicates",2.551 and 1.111 and 1.493
same,"% Activity (ID list), D0",TGR [2]; [6],75.6% and 75.7% and 80.1%
same,"% Inhibition (ID list), D0",TGR [2]; [6],24.4% and 24.3% and 19.9%
same,"% Activity (ID list), D60",TGR [2]; list for plotting,78.0% and 78.9% and 78.3%
same,"% Inhibition (ID list), D60",TGR [2]; list for plotting,22.0% and 21.1% and 21.7%
same,"Inhibitor (rate), 0 min",TGR [2],0.03741 and 0.03869 and 0.04167
same,"% Activity, 0 min",TGR [2],75.6216% and 75.6995% and 80.0576%
same,"Inhibitor (rate), 60 min",TGR [2],0.03652 and 0.03852 and 0.03804
same,"% Activity, 60 min",TGR [2],78.0175% and 78.8698% and 78.3361%
same,"Inhibitor (rate), -15",TGR [2],0.0007205 and 0.001179 and -0.0005968
same,"% Activity, -15",TGR [2],1.808% and 2.913% and -1.39%
same,% Activity (ID list),TGR [2]; list for plotting,2.9% and -1.4%
same,% Inhibition (ID list),TGR [2]; list for plotting,98.2% and 97.1% and 101.4%
same,viability at 5 µM,[4],73.2%
same,viability at 15 µM,[4],60.7%
same,viability at 30 µM,[4],56.8%
same,LD50 ex vivo S. mansoni 21 days,[4],>30^a µM
"O=C(C1CCCCC1)N1CC(=O)N2CCc3ccccc3C2C1 (centres unmarked) [PZQ, praziquantel]","viability at 24 h, 5 µM","[5]; 5 µM, relative to untreated control",97.1%
same,"viability at 24 h, 10 µM","[5]; 10 µM, relative to untreated control",98.3%
same,"viability at 24 h, 25 µM","[5]; 25 µM, relative to untreated control",92.3%
same,"viability at 24 h, 35 µM","[5]; 35 µM, relative to untreated control",89.1%
same,"viability at 24 h, 50 µM","[5]; 50 µM, relative to untreated control",88.9%
same,LD50 ex vivo S. mansoni 21 days,[4],>50^a µM
